± gives the uncertainty stated by the source.
Experiment: xn = mol fraction of the nth substance listed

O + CC[n+]1ccn(C)c1.CS(=O)(=O)[O-]
electrical conductivity (298.15 K, 100 kPa, x1 = 1): 0.00023 ± 1e-05 S/m | electrical conductivity (323.15 K, 100 kPa, frequency 0.003 MHz, x2 = 0): 0.0005 ± 0.0001 S/m | electrical conductivity (333.15 K, 100 kPa, frequency 0.003 MHz, x2 = 0): 0.0015 ± 0.0001 S/m

CCCC[n+]1ccn(C)c1.F[B-](F)(F)F + CCCCCC[n+]1ccn(C)c1.F[B-](F)(F)F
viscosity (305.15 K, 101 kPa, x1 = 1): 75.1 ± 1.4 mPa·s

CCCC[n+]1ccn(C)c1.F[B-](F)(F)F + C=CC(=O)OC
viscosity (303.15 K, 101 kPa, x1 = 1): 76.3 ± 1.9 mPa·s | viscosity (313.15 K, 101 kPa, x1 = 1): 46.2 ± 1 mPa·s

CC[n+]1ccn(C)c1.N#C[N-]C#N + CCC(C)O
viscosity (298.15 K, 100 kPa, x1 = 0.1023): 3.05 ± 0.61 mPa·s | viscosity (298.15 K, 100 kPa, x1 = 0.2005): 3.17 ± 0.63 mPa·s | viscosity (298.15 K, 100 kPa, x1 = 0.3015): 3.48 ± 0.7 mPa·s | viscosity (298.15 K, 100 kPa, x1 = 0.4018): 3.86 ± 0.77 mPa·s | viscosity (298.15 K, 100 kPa, x1 = 0.5032): 4.53 ± 0.91 mPa·s | viscosity (298.15 K, 100 kPa, x1 = 0.6026): 5.4 ± 1.1 mPa·s | viscosity (298.15 K, 100 kPa, x1 = 0.7026): 6.7 ± 1.3 mPa·s | viscosity (298.15 K, 100 kPa, x1 = 0.8032): 8.3 ± 1.6 mPa·s | viscosity (298.15 K, 100 kPa, x1 = 0.9029): 10.3 ± 2.1 mPa·s | viscosity (298.15 K, 100 kPa, x1 = 1): 13.1 ± 2.6 mPa·s | viscosity (303.15 K, 100 kPa, x1 = 0.1023): 2.59 ± 0.52 mPa·s | viscosity (303.15 K, 100 kPa, x1 = 0.2005): 2.71 ± 0.54 mPa·s | viscosity (303.15 K, 100 kPa, x1 = 0.3015): 3.02 ± 0.6 mPa·s | viscosity (303.15 K, 100 kPa, x1 = 0.4018): 3.41 ± 0.68 mPa·s | viscosity (303.15 K, 100 kPa, x1 = 0.5032): 4.07 ± 0.82 mPa·s | viscosity (303.15 K, 100 kPa, x1 = 0.6026): 4.95 ± 0.99 mPa·s | viscosity (303.15 K, 100 kPa, x1 = 0.7026): 6.1 ± 1.2 mPa·s | viscosity (303.15 K, 100 kPa, x1 = 0.8032): 7.5 ± 1.5 mPa·s | viscosity (303.15 K, 100 kPa, x1 = 0.9029): 9.6 ± 1.9 mPa·s | viscosity (303.15 K, 100 kPa, x1 = 1): 11.8 ± 2.4 mPa·s | viscosity (308.15 K, 100 kPa, x1 = 0.1023): 2.25 ± 0.45 mPa·s | viscosity (308.15 K, 100 kPa, x1 = 0.2005): 2.37 ± 0.47 mPa·s | viscosity (308.15 K, 100 kPa, x1 = 0.3015): 2.68 ± 0.54 mPa·s | viscosity (308.15 K, 100 kPa, x1 = 0.4018): 3.06 ± 0.61 mPa·s | viscosity (308.15 K, 100 kPa, x1 = 0.5032): 3.72 ± 0.75 mPa·s | viscosity (308.15 K, 100 kPa, x1 = 0.6026): 4.63 ± 0.93 mPa·s | viscosity (308.15 K, 100 kPa, x1 = 0.7026): 5.6 ± 1.1 mPa·s | viscosity (308.15 K, 100 kPa, x1 = 0.8032): 7 ± 1.4 mPa·s | viscosity (308.15 K, 100 kPa, x1 = 0.9029): 8.9 ± 1.8 mPa·s | viscosity (308.15 K, 100 kPa, x1 = 1): 10.9 ± 2.2 mPa·s | viscosity (313.15 K, 100 kPa, x1 = 0.1023): 2.01 ± 0.4 mPa·s | viscosity (313.15 K, 100 kPa, x1 = 0.2005): 2.13 ± 0.43 mPa·s | viscosity (313.15 K, 100 kPa, x1 = 0.3015): 2.41 ± 0.48 mPa·s | viscosity (313.15 K, 100 kPa, x1 = 0.4018): 2.69 ± 0.54 mPa·s | viscosity (313.15 K, 100 kPa, x1 = 0.5032): 3.36 ± 0.67 mPa·s | viscosity (313.15 K, 100 kPa, x1 = 0.6026): 4.19 ± 0.84 mPa·s | viscosity (313.15 K, 100 kPa, x1 = 0.7026): 5.1 ± 1 mPa·s | viscosity (313.15 K, 100 kPa, x1 = 0.8032): 6.4 ± 1.3 mPa·s | viscosity (313.15 K, 100 kPa, x1 = 0.9029): 7.8 ± 1.6 mPa·s | viscosity (313.15 K, 100 kPa, x1 = 1): 9 ± 1.8 mPa·s | viscosity (318.15 K, 100 kPa, x1 = 0.1023): 1.83 ± 0.37 mPa·s | viscosity (318.15 K, 100 kPa, x1 = 0.2005): 1.95 ± 0.39 mPa·s | viscosity (318.15 K, 100 kPa, x1 = 0.3015): 2.26 ± 0.45 mPa·s | viscosity (318.15 K, 100 kPa, x1 = 0.4018): 2.54 ± 0.51 mPa·s | viscosity (318.15 K, 100 kPa, x1 = 0.5032): 3.06 ± 0.61 mPa·s | viscosity (318.15 K, 100 kPa, x1 = 0.6026): 3.79 ± 0.76 mPa·s | viscosity (318.15 K, 100 kPa, x1 = 0.7026): 4.59 ± 0.92 mPa·s | viscosity (318.15 K, 100 kPa, x1 = 0.8032): 5.8 ± 1.2 mPa·s | viscosity (318.15 K, 100 kPa, x1 = 0.9029): 6.9 ± 1.4 mPa·s | viscosity (318.15 K, 100 kPa, x1 = 1): 8.1 ± 1.6 mPa·s | viscosity (323.15 K, 100 kPa, x1 = 0.1023): 1.67 ± 0.33 mPa·s | viscosity (323.15 K, 100 kPa, x1 = 0.2005): 1.79 ± 0.36 mPa·s | viscosity (323.15 K, 100 kPa, x1 = 0.3015): 2.05 ± 0.41 mPa·s | viscosity (323.15 K, 100 kPa, x1 = 0.4018): 2.26 ± 0.45 mPa·s | viscosity (323.15 K, 100 kPa, x1 = 0.5032): 2.83 ± 0.57 mPa·s | viscosity (323.15 K, 100 kPa, x1 = 0.6026): 3.51 ± 0.7 mPa·s | viscosity (323.15 K, 100 kPa, x1 = 0.7026): 4.18 ± 0.84 mPa·s | viscosity (323.15 K, 100 kPa, x1 = 0.8032): 5 ± 1 mPa·s | viscosity (323.15 K, 100 kPa, x1 = 0.9029): 6.2 ± 1.2 mPa·s | viscosity (323.15 K, 100 kPa, x1 = 1): 7.3 ± 1.5 mPa·s

CC(=O)[O-].C[NH+]1CCCC1 + CC(=O)[O-].Cn1cc[nH+]c1
viscosity (298.15 K, 100 kPa, x2 = 0): 3.78 ± 0.08 mPa·s | viscosity (298.15 K, 100 kPa, x2 = 0.1): 4.87 ± 0.1 mPa·s | viscosity (298.15 K, 100 kPa, x2 = 0.19): 5.35 ± 0.11 mPa·s | viscosity (298.15 K, 100 kPa, x2 = 0.31): 6.23 ± 0.13 mPa·s | viscosity (298.15 K, 100 kPa, x2 = 0.4): 6.46 ± 0.14 mPa·s | viscosity (298.15 K, 100 kPa, x2 = 0.5): 6.78 ± 0.15 mPa·s | viscosity (298.15 K, 100 kPa, x2 = 0.59): 6.74 ± 0.15 mPa·s | viscosity (298.15 K, 100 kPa, x2 = 0.71): 6.59 ± 0.15 mPa·s | viscosity (298.15 K, 100 kPa, x2 = 0.8): 6.47 ± 0.15 mPa·s

From the CheMixHub ionic liquid set
